Molecular target: Casein kinase 1 delta (CSKN1D) (Homo sapiens, UniProt P48730)
Assay: Casein kinase assay, CK1 delta
Assay type: biochemical
Details: recombinant CSKN1D 5 nM, ATP 10 μM
Protocol: The recombinant protein Casein kinase 1 delta (CSKN1D) was added to the substrate solution in a concentration of 5 nM and gently mixed. Dilution series in of compounds of the present invention in DMSO were added to the reaction mixture, followed after 20 min by addition of a mixture of ATP and ^33P-ATP (specific activity 0.01 μCi/μl final) to a final concentration of 10 μM. Reactions were carried out at 25° C. for 120 min, followed by spotting the reactions onto P81 ion exchange filter paper. Unbound phosphate was removed by washing of the filters in 0.75% phosphoric acid. […] IC50 values and curve fits were obtained using the program Prism® (Graph Pad Software).

Casein kinase 1 delta (CSKN1D), sequence (P48730 whole entry): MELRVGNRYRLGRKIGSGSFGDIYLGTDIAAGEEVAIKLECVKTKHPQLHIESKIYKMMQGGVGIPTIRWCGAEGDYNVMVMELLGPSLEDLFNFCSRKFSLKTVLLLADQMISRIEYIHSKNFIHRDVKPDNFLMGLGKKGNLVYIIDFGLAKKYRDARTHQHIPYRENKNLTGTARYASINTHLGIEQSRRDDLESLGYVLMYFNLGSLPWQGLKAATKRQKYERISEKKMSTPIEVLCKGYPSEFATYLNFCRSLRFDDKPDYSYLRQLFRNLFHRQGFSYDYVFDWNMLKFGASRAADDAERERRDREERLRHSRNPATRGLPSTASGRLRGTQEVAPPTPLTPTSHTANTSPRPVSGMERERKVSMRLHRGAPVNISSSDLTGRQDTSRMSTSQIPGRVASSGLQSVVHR

`O=C(Nc1nc2cc3c(cc2[nH]1)OC(F)(F)O3)c1csc(-c2ccsc2)n1` [Compound 81, N-(2,2-difluoro-5H-[1,3]dioxolo[4′,5′:4,5]benzo[1,2-d]imidazol-6-yl)-2-(thiophen-3-yl)thiazole-4-carboxamide] and `O=C(Nc1nc2cc3c(cc2[nH]1)OC(F)(F)O3)c1csc(-c2ccc3c(c2)OCCO3)n1` [Compound 82, N-(2,2-difluoro-5H-[1,3]dioxolo[4′,5′:4,5]benzo[1,2-d]imidazol-6-yl)-2-(2,3-dihydrobenzo[b][1,4]dioxin-6-yl)thiazole-4-carboxamide] cannot be ordered by IC50: less than 200 nM for the first, less than 200 nM for the second.

Compared with `N#Cc1ccc(C(=O)Nc2nc3cc4c(cc3[nH]2)OC(F)(F)O4)c(F)c1` [Compound 93, 4-cyano-N-(2,2-difluoro-5H-[1,3]dioxolo[4′,5′:4,5]benzo[1,2-d]imidazol-6-yl)-2-fluorobenzamide], `NC(=O)c1ccc(C(=O)Nc2nc3cc4c(cc3[nH]2)OC(F)(F)O4)c(F)c1` [Compound 94, N^1-(2,2-difluoro-5H-[1,3]dioxolo[4′,5′:4,5]benzo[1,2-d]imidazol-6-yl)-2-fluoroterephthalamide] is lower in IC50: greater than 1000 nM for the first, less than 200 nM for the second. The second is the more potent here.

`NS(=O)(=O)c1cccc(C(=O)Nc2nc3cc4c(cc3[nH]2)OC(F)(F)O4)c1` [Compound 100, N-(2,2-difluoro-5H-[1,3]dioxolo[4′,5′:4,5]benzo[1,2-d]imidazol-6-yl)-3-sulfamoylbenzamide] and `CS(=O)(=O)Nc1cccc(C(=O)Nc2nc3cc4c(cc3[nH]2)OC(F)(F)O4)c1` [Compound 108, N-(2,2-difluoro-5H-[1,3]dioxolo[4′,5′:4,5]benzo[1,2-d]imidazol-6-yl)-3-(methylsulfonamido)benzamide] cannot be ordered by IC50: less than 200 nM for the first, less than 200 nM for the second.

`NS(=O)(=O)c1c[nH]c(C(=O)Nc2nc3cc4c(cc3[nH]2)OC(F)(F)O4)c1` [Compound 101, N-(2,2-difluoro-5H-[1,3]dioxolo[4′,5′:4,5]benzo[1,2-d]imidazol-6-yl)-4-sulfamoyl-1H-pyrrole-2-carboxamide] and `NS(=O)(=O)c1ccc(C(=O)Nc2nc3cc4c(cc3[nH]2)OC(F)(F)O4)cn1` [Compound 112, N-(2,2-difluoro-5H-[1,3]dioxolo[4′,5′:4,5]benzo[1,2-d]imidazol-6-yl)-6-sulfamoylnicotinamide] cannot be ordered by IC50: less than 200 nM for the first, less than 200 nM for the second.

Compared with `O=C(Nc1nc2cc3c(cc2[nH]1)OC(F)(F)O3)c1c[nH]cn1` [Compound 103, N-(2,2-difluoro-5H-[1,3]dioxolo[4′,5′:4,5]benzo[1,2-d]imidazol-6-yl)-1H-imidazole-4-carboxamide], `O=C(Nc1nc2cc3c(cc2[nH]1)OC(F)(F)O3)c1ccc(Cl)cc1` [Compound 106, 4-chloro-N-(2,2-difluoro-5H-[1,3]dioxolo[4′,5′:4,5]benzo[1,2-d]imidazol-6-yl)benzamide] is higher in IC50: 200 to 1000 nM for the first, greater than 1000 nM for the second.

`COC(=O)c1cccc(C(=O)Nc2nc3cc4c(cc3[nH]2)OC(F)(F)O4)c1` [Compound 105, methyl 3-((2,2-difluoro-5H-[1,3]dioxolo[4′,5′:4,5]benzo[1,2-d]imidazol-6-yl)carbamoyl)benzoate] and `CC(=O)c1cccc(C(=O)Nc2nc3cc4c(cc3[nH]2)OC(F)(F)O4)c1` [Compound 114, 3-acetyl-N-(2,2-difluoro-5H-[1,3]dioxolo[4′,5′:4,5]benzo[1,2-d]imidazol-6-yl)benzamide] cannot be ordered by IC50: less than 200 nM for the first, less than 200 nM for the second.

First: Cc1ccc(C(=O)Nc2nc3cc4c(cc3[nH]2)OC(F)(F)O4)cc1 [Compound 107, N-(2,2-difluoro-5H-[1,3]dioxolo[4′,5′:4,5]benzo[1,2-d]imidazol-6-yl)-4-methylbenzamide]
Second: O=C(Nc1nc2cc3c(cc2[nH]1)OC(F)(F)O3)c1ccc(F)cc1 [Compound 119, N-(2,2-difluoro-5H-[1,3]dioxolo[4′,5′:4,5]benzo[1,2-d]imidazol-6-yl)-4-fluorobenzamide]
The IC50 of the first is higher: greater than 1000 nM for the first, 200 to 1000 nM for the second. The second is the more potent here.

`O=C(Nc1nc2cc3c(cc2[nH]1)OC(F)(F)O3)c1ccc(Cl)c(Cl)c1` [Compound 109, 3,4-dichloro-N-(2,2-difluoro-5H-[1,3]dioxolo[4′,5′:4,5]benzo[1,2-d]imidazol-6-yl)benzamide] and `Nc1ccc(C(=O)Nc2nc3cc4c(cc3[nH]2)OC(F)(F)O4)cc1F` [Compound 127, 4-amino-N-(2,2-difluoro-5H-[1,3]dioxolo[4′,5′:4,5]benzo[1,2-d]imidazol-6-yl)-3-fluorobenzamide] fall in the same range of IC50: 200 to 1000 nM for the first, 200 to 1000 nM for the second.

First: Nc1ccc(C(=O)Nc2nc3cc4c(cc3[nH]2)OC(F)(F)O4)cn1 [Compound 110, 6-amino-N-(2,2-difluoro-5H-[1,3]dioxolo[4′,5′:4,5]benzo[1,2-d]imidazol-6-yl)nicotinamide]
Second: O=C(Nc1nc2cc3c(cc2[nH]1)OC(F)(F)O3)c1cccc(O)c1 [Compound 113, N-(2,2-difluoro-5H-[1,3]dioxolo[4′,5′:4,5]benzo[1,2-d]imidazol-6-yl)-3-hydroxybenzamide]
The IC50 of the first is higher: 200 to 1000 nM for the first, less than 200 nM for the second. The second is the more potent here.

First: CC(C)(C)c1ccc(C(=O)Nc2nc3cc4c(cc3[nH]2)OC(F)(F)O4)cc1 [Compound 115, 4-(tert-butyl)-N-(2,2-difluoro-5H-[1,3]dioxolo[4′,5′:4,5]benzo[1,2-d]imidazol-6-yl)benzamide]
Second: N#Cc1cccc(C(=O)Nc2nc3cc4c(cc3[nH]2)OC(F)(F)O4)c1 [Compound 116, 3-cyano-N-(2,2-difluoro-5H-[1,3]dioxolo[4′,5′:4,5]benzo[1,2-d]imidazol-6-yl)benzamide]
The IC50 of the first is higher: 200 to 1000 nM for the first, less than 200 nM for the second.

`O=C(Nc1nc2cc3c(cc2[nH]1)OC(F)(F)O3)c1cccc(-c2nnn[nH]2)c1` [Compound 118, N-(2,2-difluoro-5H-[1,3]dioxolo[4′,5′:4,5]benzo[1,2-d]imidazol-6-yl)-3-(1H-tetrazol-5-yl)benzamide] and `O=C(Nc1nc2cc3c(cc2[nH]1)OC(F)(F)O3)c1cccc(OC(F)F)c1` [Compound 121, N-(2,2-difluoro-5H-[1,3]dioxolo[4′,5′:4,5]benzo[1,2-d]imidazol-6-yl)-3-(difluoromethoxy)benzamide] cannot be ordered by IC50: less than 200 nM for the first, less than 200 nM for the second.

First: O=C(Nc1nc2cc3c(cc2[nH]1)OC(F)(F)O3)c1cccc(OC(F)(F)F)c1 [Compound 120, N-(2,2-difluoro-5H-[1,3]dioxolo[4′,5′:4,5]benzo[1,2-d]imidazol-6-yl)-3-(trifluoromethoxy)benzamide]
Second: Nc1ccc(C(=O)Nc2nc3cc4c(cc3[nH]2)OC(F)(F)O4)cc1C(F)(F)F [Compound 126, 4-amino-N-(2,2-difluoro-5H-[1,3]dioxolo[4′,5′:4,5]benzo[1,2-d]imidazol-6-yl)-3-(trifluoromethyl)benzamide]
The IC50 of the first is higher: 200 to 1000 nM for the first, less than 200 nM for the second. The second is the more potent here.

`COc1cncc(C(=O)Nc2nc3cc4c(cc3[nH]2)OC(F)(F)O4)c1` [Compound 123, N-(2,2-difluoro-5H-[1,3]dioxolo[4′,5′:4,5]benzo[1,2-d]imidazol-6-yl)-5-methoxynicotinamide] and `COc1cc(C(=O)Nc2nc3cc4c(cc3[nH]2)OC(F)(F)O4)ccn1` [Compound 124, N-(2,2-difluoro-5H-[1,3]dioxolo[4′,5′:4,5]benzo[1,2-d]imidazol-6-yl)-2-methoxyisonicotinamide] cannot be ordered by IC50: less than 200 nM for the first, less than 200 nM for the second.

`O=C(Nc1nc2cc3c(cc2[nH]1)OC(F)(F)O3)c1cccc(N2CCCCC2)c1` [Compound 128, N-(2,2-difluoro-5H-[1,3]dioxolo[4′,5′:4,5]benzo[1,2-d]imidazol-6-yl)-3-(piperidin-1-yl)benzamide] was tested, and the IC50 was less than 200 nM.
